How the values were obtained:
[1] = tested on: Liver Injuries caused by D-galactosamine in Rats; test: Inhibitory effect against liver injuries caused by D-galactosamine in rats; assay type: in vivo, Rats (SD, male); conditions: D-galactosamine i.p., serum 24 h
Excerpt: The hepatoprotective effect of the compound of formula (1) was also identified by D-galactosamine model(see, Koji Hase et al., Biol. Pharm. Bull., 20, 4, 381-385, 1997; Jun-ichi Nagakawa et al., J. Pharmacology and Experimental Therapeutics, 264, 1, 1992; Toxicology of the Liver, Raven Press, New York, 1985). The N-acyl galactosamine resulted from the excess administration of D-galactosamine acts as a substrate for UDP-galactosamine or UDP-N-acyl galactosamine. But, the inordinate synthesis of […] and UDP-hexosamine may inhibit the binding of UTP in the liver cells and biosynthsis of UDP-glucose and UDP-galactose, which finally causes the structural and functional changes of the liver cell membranes. Consequently, it results in sporadic necrosis and the increase of ALT and AST values in blood. Since the toxicity caused by D-galactosamine looks similar to the symptoms of viral hepatitis, D-galactosamine model is also used conventionally as a model for viral hepatitis.
(§1) The degree of liver damage in the experimental animals was determined by measuring ALT and AST values in blood(see, Biol. Pharm. Bull., 20, 4, 381-385, 1997; Toxicology and Applied Pharmacology, 95, 1-11, 1988), and the hepatoprotective activity was calculated based on the following formula(see, Planta Medica, 55, 127-132, 1989). At this time, the hepatoprotective activity can also be calculated based on the same formula by replacing ALT value with AST value. [formula]
The hepatoprotective effect of the compound of the present invention was identified according to a known procedure(see, Koji Hase et al., Biol. Pharm. Bull., 20, 4, 381-385, 1997), and the protocol may be described in brief as follows.
Rats(SD, male, 180˜200 g) as the test animal were allowed in a condition of temperature 22±1° C. and relative humidity 60±5%. Feed and water were provided with no restriction while light and darkness were changed at an interval of 12 hours.
The compound of the present invention was suspended in a solvent corn oil, and this suspension was administered in a dose of 2 ml/kg. Each group included 8 test animals, and the test compound was orally administered for once per animal. After 30 minutes from the administration of the test compound, D-galactosamine solution(concentration: 200 mg/ml) in physiological saline was intraperitoneally injected in a dose of 2 ml/kg. As the control compounds, silymarin and DDB were selected.
(§2) The test animals were provided with no feed and sufficient water for 24 hours from the administration of D-galactosamine. […] This blood was centrifuged to obtain sera. ALT and AST values in the sera were measured using blood chemistry analyzer(Vitalab, Selectra II, Merck). The statistical significance for the test result of each group was examined based on Student's t-test, and the result was recognized as having a statistical significance when its P value is less than 5%.

[2] = tested on: Liver Injuries caused by Thioacetamide in Mice; test: Inhibitory effect against liver injuries caused by thioacetamide in mice; assay type: in vivo, Mice (ICR, male); conditions: thioacetamide i.p., serum 24 h
Excerpt: The hepatoprotective effect of the compound of formula (1) was also identified by thioacetamide model(see, Masuda Yasusuke and Nakayama Nobue, Biochemical Pharmacology, 31, 17, 2713-2725, 1982; Liu Jie et al., Acta Pharmacologica Sinica, 16, 2, 97-102, 1995; Story D. L. et al., J. Tox. Environ. Health, 11, 483-501, 1983; Gomez-Lechon M. J. et al., Xenobiotica, 18, 6, 725-735, 1988) which is frequently used as an experimental model for liver injuries. This model has been established based on the phenomena that thioacetamide activated by P-450 S-oxidation inordinately increases the influx of calcium ion(Ca^++) into the liver cells, which in turn activates calcium ion-dependent phospholipase, protease and endonuclease, changes the cell frame through the calcium ion, exhausts ATP, and consequently destroys the liver cells. Thioacetamide also damages ureogenesis pathway in liver, and the metabolite of thioacetamide inhibits the transfer of RNA and makes the liver cell membranes unstable. A series of these activities results in the destruction of the liver cells, which in turn causes the increase of ALT and AST values in blood and also causes histologically the centrilobular necrosis.
as §1
The hepatoprotective effect of the compound of the present invention was identified according to a known procedure(see, Landon, E. J. et al., Biochemical Pharmacology, 35, 4, 697-705, 1986), and the protocol may be described in brief as follows.
Mice(ICR, male, 27˜35 g) as the test animal were allowed in a condition of temperature 22±1° C. and relative humidity 60±5%. Feed and water were provided with no restriction while light and darkness were changed at an interval of 12 hours.
The compound of the present invention was suspended in a solvent corn oil, and this suspension was administered in a dose of 10 ml/kg. Each group included 8 test animals, and the test compound was orally administered once per animal. After 1 hour from the administration of the test compound, thioacetamide solution(concentration: 90 mg/ml) in physiological saline was intraperitoneally injected in a dose of 1 ml/kg. As the control compounds, silymarin and DDB were selected.
as §2, with “thioacetamide.” for “D-galactosamine.”

SMILES | Inhibitory Effect against Liver Injuries (%) ALT ([1]; dose 5.6 mg/kg p.o. once) | Inhibitory Effect against Liver Injuries (%) ALT ([1]; dose 16.7 mg/kg p.o. once) | Inhibitory Effect against Liver Injuries (%) ALT ([1]; dose 50 mg/kg p.o. once) | Inhibitory Effect against Liver Injuries (%) ALT ([2]; dose 50 mg/kg p.o. once) | Inhibitory Effect against Liver Injuries(%) AST ([1]; dose 5.6 mg/kg p.o. once) | Inhibitory Effect against Liver Injuries(%) AST ([1]; dose 16.7 mg/kg p.o. once) | Inhibitory Effect against Liver Injuries(%) AST ([1]; dose 50 mg/kg p.o. once) | Inhibitory Effect against Liver Injuries (%) ALT ([2]; dose 16.7 mg/kg p.o. once) | Inhibitory Effect against Liver Injuries(%) AST ([2]; dose 16.7 mg/kg p.o. once) | Inhibitory Effect against Liver Injuries(%) AST ([2]; dose 50 mg/kg p.o. once)
COc1cc(/C=N/OCc2ccccn2)cc2c1OCO2 [Compound 13, 6-(2-((2-pyridyl)methoxy)-2-azavinyl)-4-methoxybenzo [d]1,3-dioxolane] | 34% | 35% | 67% | 91% | – | – | – | – | – | –
O/N=C/c1ccc2c(c1)OCO2 [Compound 1] | – | 5% | 12% | 99% | – | – | – | – | – | –
c1csc(-c2ccc3c(c2)OCO3)n1 [Compound 21, 2-(benzo[3,4-d]1,3-dioxolan-5-yl)-1,3-thiazole] | 27% | 32% | 56% | 98% | 29% | 29% | 46% | 54% | 37% | 98%
CC(=O)SCC(=O)c1ccc2c(c1)OCO2 [Compound 28, 1-(benzo[3,4-d]1,3-dioxolan-5-yl)-2-acetylthioethan-1-one] | 42% | 51% | 52% | 87% | 48% | 55% | 55% | 76% | 89% | 94%
COC(=O)c1cc(OC)c2c(c1-c1c(C(=O)OC)cc(OC)c3c1OCO3)OCO2 [DDB, reference compound] | – | – | 28% | 21% | – | – | 12% | – | – | −4%

Reference: patent US6693126B2, “Dihydroxyphenyl derivatives for hepatoprotection and treatment of liver diseases” (Choongwae Pharm. Co., Ltd., priority 2000, dated 2004)
